Laboratory results published in US10857209B2, “Lysosomal acid lipase and PPAR gamma ligands as immune therapies for cancer treatment” (Indiana University Research and Technology Corporation, priority 2016, dated 2020).

B1: hLAL: human lysosomal acid lipase expressed from a doxycycline-controlled tissue-specific transgene in lal−/− mice; never administered as a protein (protein)
chain: GPKPVVFLQHGLLADSSNWVTNLANSSLGFILADAGFDVWMGNSRGNTWSRKHKTLSVSQDEFWAFSYDEMAKYDLPASINFILNKTGQEQVYYVGHSQGTTIGFIAFSQIPELAKRIKMFFALGPVASVAFCTSPMAKLGRLPDHLIKDLFGDKEFLPQSAFLKWLGTHVCTHVILKELCGNLCFLLCGFNERNLNMSRVDVYTTHSPAGTSVQNMLHWSQAVKFQKFQAFDWGSSAKNYFHYNQSYPPTYNVKDMLVPTAVWSGGHDWLADVYDVNILLTQITNLVFHESIPEWEHLDFIWGLDAPWRLYNKIINLMRKYQ
modifications: left off: small tags and cut ends
notes: human lysosomal acid lipase expressed from a doxycycline-controlled tissue-specific transgene in lal−/− mice; never administered as a protein

Experiments:
Ly6G+CD11b+ cells = test: ROS level in Ly6G+CD11b+ cells by flow cytometry; assay type: cell-based, mouse; settings: lal−/− Ly6G+CD11b+ cells; 20 μmol/L, 48 hours
Protocol: The reactive oxygen species (ROS) level and mitochondrial membrane potential in MDSCs was measured by flow cytometry. Briefly, bone marrow cells were first treated with or without 20 μmol/L 9-HODE or ethanol for 2 days. For ROS level detection, cells were harvested, washed, and stained with 2′,7′-dichlorofluorescein diacetate (2 μmol/L, Invitrogen), allophycocyanin cy7-conjugated anti-Ly6G Ab, and phycoerythrin cy7-conjugated anti-CD 11b Ab (eBioscience) at 37° C. for 15 minutes. After PBS wash, the ROS level in Ly6G^+CD11b^+ cells was analyzed using a LSRII machine (BD Biosciences).

mTOR pathway = test: Flow cytometry of mTOR pathway in gated Ly6G+CD11b+ bone marrow cells; assay type: cell-based, mouse; settings: 20 μmol/L, 2 hours
Protocol: For in vitro PPARγ ligand treatment, 9-HODE (Cayman Chemical Co., Ann Arbor, Mich., USA) was added into the culture medium of MDSCs to a final concentration of 20 μmol/L for 24 or 48 hours. For the study of the effect of PPARγ ligand on the mTOR signaling pathway, bone marrow cells were treated with 9-HODE (20 μmol/L) for 2 hours.
Single cells from the bone marrow of 5-month-old lal^+/+ and lal^−/− mice were prepared as described in Qu et al., Cancer Res. 2009; 69:7252-7261. After 20 μmol/L 9-HODE treatment for 2 hours, cells were harvested, and labeled with anti-Ly6G and CD11b cell surface antibody (eBioscience) at 4° C. for 15 minutes. Cells were then fixed and permeabilized using BD Cytofix/Cytoperm Fixation/Permeabilization Kit (BD Biosciences) according to the manufacturer's instructions, and incubated with Alexa Fluor 647-conjugated anti-mTOR antibody, Alexa Fluor 488-conjugated anti-S6 antibody, Alexa Fluor 488-conjugated anti-pS6 (Ser235/236) antibody, and rabbit anti-pmTOR (Ser2448) antibody (Cell Signaling Technology, Beverly, Mass., USA) at 4° C. overnight. For anti-pmTOR antibody staining, cells were incubated with Alexa Fluor 647-conjugated anti-rabbit IgG in the following day. Cells were washed and ready for flow cytometry analysis. Mean fluorescence intensities of the proteins in the gated Ly6G^+CD11b^+ area were analyzed. For flow cytometry analysis, ≥10,000 cells were acquired and scored using a LSRII machine (BD Biosciences). Data were processed using the CellQuest software program (BD Biosciences).

B16 melanoma cells [1] = test: In vitro migration (wound healing) assay with pre-treated MDSCs; assay type: cell-based, mouse; settings: co-culture with pre-treated lal−/− Ly6G+ cells; 24 hours; mitomycin C
Protocol: In vitro wound healing assay was performed to analyze B16 melanoma cell migration. Briefly, B16 melanoma cells were seeded at a density of 1.5×10^5 cells/well into a 24-well plate and incubated overnight to form a confluent monolayer. Scratch was created by scraping the cell monolayer in a straight line with a p200 pipet tip. After washing 3 times with DMEM, the medium was changed with DMEM containing 10% FBS and 5 μg/mL mitomycin C (Sigma-Aldrich, St. Louis, Mo., USA), and MDSCs pre-treated with 9-HODE or ethanol for 24 hours were added onto B16 melanoma cell monolayer at a density of 1×10^6 cells/well. Images were taken at 0 and 24 hours after creating the scratch. Migration was estimated by measuring the distances from one side of scratch to the other side using Image Pro-Plus software (Media Cybernetics, Rockville, Md., USA).

[2] = tested on: CD11b+Ly6G+, CD4+, CD8+, B220+ cells; test: Flow cytometry of immune cells in organs of LAP-Tg/KO mice; assay type: in vivo, mouse
Protocol: Single-cell suspensions from the bone marrow, spleen, blood, liver, and lung were prepared and analyzed as described in Qu et al., Am J Pathol 2009, 174:944-956; Qu et al., Am J Pathol 2010, 176:2394-2404; Qu et al., J Immunol 2009, 182:1648-1659). Approximately 1×10^6 cells from various organs were blocked with FcR blocking antibodies in flow cytometry buffer (BD Biosciences, San Jose, Calif.) followed by incubation with isotype control or surface specific primary antibodies. Anti-CD11b (M1/70) PE-Cyanine7, anti-Ly6G (RB6-8c5) allophycocyanin-eFluor 780, anti-CD4 fluorescein isothiocyanate, anti-CD8 […], and anti-B220 allophycocyanin were purchased from e-Biosciences (San Diego, Calif.). Cells were analyzed on a LSRII machine (BD Biosciences). Data were analyzed using the BD FACStation software (CellQuest Pro version 2.2.1, BD Bio-sciences). The total gated number of positive cells (approximately 30,000 events) was calculated as the percentage of total gated viable cells. Quadrants were assigned using isotype control monoclonal antibody.

B16 melanoma cells [3] = test: B16 melanoma metastasis in LAP-Tg/KO mice; assay type: in vivo, mouse; settings: hepatocyte-specific expression in lal−/− mice; 5×10^5 cells i.v., two weeks
Source text: LAP-tTA/(TetO)7-CMV-hLAL; lal^−/− (LAP-Tg/KO) triple mice of the FVB/N background was established by cross-breeding of LAP-tTA transgenic mice (Jackson's Laboratory, Bar Harbor, Me.) with a previously generated (tetO)7-CMV-hLAL transgenic mice into lal^−/− mice. This triple transgenic mouse model was hepatocyte-specific Tet-off expression of wild-type hLAL in lal^−/− mice under the control of the LAP. All scientific protocols that involved the use of animals were approved by the Institutional Animal Care and Use Committee of Indiana University School of Medicine and followed guidelines established by the Panel on Euthanasia of the American Veterinary Medical Association. Animals were housed in a secured animal facility at Indiana University School of Medicine.
Tissues from the liver, intestine, and lung were collected after mice were anesthetized. All tissues were washed with phosphate-buffered saline and dehydrated by a series of increasing ethanol concentrations, followed by paraffin embedding. Sections were stained with anti-Ki67 antibody, anti-LAL antibody, and anti-F4/80 antibody by the histologic core.
For experimental metastasis, 5×10^5 B16 melanoma cells in 200 μL of phosphate-buffered saline were injected into the mice via tail vein. Two weeks after the injection, the mice were sacrificed, and the livers and lungs were harvested for examination of metastasis.

[4] = doxycycline-untreated LAP-Tg/KO triple mice (hLAL on)

Molecule | ROS production (Ly6G+CD11b+ cells) | phosphorylation of S6 (MFI) (mTOR pathway; gated lal−/− Ly6G+CD11b+ cells) | phosphorylation of mTOR (MFI) (mTOR pathway; gated lal−/− Ly6G+CD11b+ cells) | overall levels of mTOR and S6 (mTOR pathway; lal−/− MDSCs) | B16 melanoma cell migration into wound area (B16 melanoma cells [1]) | CD11b+Ly6G+ cell expansion in blood, spleen, lung, bone marrow [2, 4] | percentage and total number of CD11b+Ly6G+ cells in the liver [2, 4] | CD4+ T cells in blood, lung and spleen ([2]; hepatocyte-specific expression, LAP-Tg/KO triple mice) | B16 melanoma cell metastasis in liver and lung (B16 melanoma cells [3])
9-hydroxyoctadecadienoic acid [9-HODE] | suppressed the increased ROS production | decreased phosphorylation of S6 | decreased phosphorylation of mTOR | reduced the overall levels of mTOR and S6 | delayed migration towards the scratch | – | – | – | –
B1 | – | – | – | – | – | reduction of CD11b^+Ly6G^+ cell expansion was also observed in the blood, spleen, and lung, but not in the bone marrow | decreased to the levels of wild-type mice | increased CD4^+ T cells | reduced B16 melanoma cell metastasis
